A short description of data set [1]: Accelerated stability test (increase of the relative substances by HPLC). It is filed as physicochemical. Particulars: RH75%, 30° C., lucifuge, sealed in ampoules, sampling time 6 month. As for the experimental part:
In addition, the accelerated stability test performed according to the Pharmacopoeia of the People's Republic of China (2005 Edition) confirmed that the sodium tanshinone IIA sulfonate hydrate crystal had better storage stability than anhydrous sodium tanshinone IIA sulfonate, and thus can be stably stored for a more longer period.
Under RH75%, 30° C. and lucifuge condition, the samples of sodium tanshinone IIA sulfonate hydrate crystals and anhydrous sodium tanshinone IIA sulfonate were separately sealed in ampoules for accelerated stability test, chromatographic conditions: column Kromasil C18 (250 mm×4.6 mm, 5 μm), mobile phase: methanol—0.02 mol/L potassium dihydrogen phosphate solution (adjusted with phosphoric acid to pH=4) (60:40), detection wavelength: 271 nm, flow rate: 1 ml/min, to measure increase extent of the relative substances (see results in Tables 1-2).

The nature of the next data set: Hygroscopicity test. It is filed as physicochemical. Particulars: 25° C.; for Relative to 0 h, weight gain %: relative humidity 75%, sampling time 48 h. The source says: The hygroscopicity test performed according to the Pharmacopoeia of the People's Republic of China (2005 Edition) confirmed that the sodium tanshinone IIA sulfonate hydrate of the present invention is much lower than anhydrous sodium tanshinone IIA sulfonate.
Samples of sodium tanshinone IIA sulfonate hydrates and anhydrous sodium tanshinone IIA sulfonate: anhydrous sodium tanshinone IIA sulfonate and the hydrates of the present invention, about 5 g for each, were placed in dry watch glass with constant weight, precisely weighed, subjected to the test at 25° C. and a relative humidity (RH) of 75%, separately sampled at 0 h and 48 h of the test, and the percentages of weight gain due to hygroscopicity was calculated.

The subject of data set [2] is calcium paradox cardiac muscle tissue. The data set is described as follows: Protection effects on calcium paradox cardiac muscle (ex vivo heart perfusion, Langendorff). More on the design: species or system guinea pigs. Particulars: hydrates 32 mg/L, Iproveratril 2.1 mg/L; for Calcium uptake, x ± S μmol/min/g, dry weight: cardiac muscle tissue; for Calcium uptake, x ± S μmol/min/g, dry weight / Protein release, x ± S mg/min/g, dry weight: 8 guinea pigs per group; for Protein release, x ± S mg/min/g, dry weight: coronary artery effluent of 20 min after calcium restored; for Calcium uptake decrease rate, % / Protein release decrease rate, %: relative to calcium paradox group. Here is the method: 48 Healthy guinea pigs, body weight 280-360 g, were divided into 6 groups, 8 guinea pigs per group, separately comprising: normal control group, calcium paradox group, iproveratril positive control group, 3 drug-administrated groups, the animals were fasted for one night before test, intraperitoneally injected with heparin 0.5 mg/kg, intraperitoneally injected with pentobarbital sodium 30 mg/kg after 20 min, their chests were opened after anesthesia, and hearts were taken out quickly, immersed in Kreb's-Henseleit (K-H) perfusion solution as cooled with ice, after aortic cannulation, the hearts were placed in ex vivo heart perfusion device with constant temperature and constant pressure. […] The effluent of coronary artery of 20 min when calcium-containing perfusion solution was restored was collected, the protein release amounts mg/min/g drywt and cardiac muscle tissue calcium uptake μmol/g drywt in the collected coronary artery effluents were measured according to the reference document.

Data set [3] deals with arrhythmia induced by calcium chloride in rats. The data set is described as follows: Effects on arrhythmia induced by calcium chloride in rats. Format: in vivo, SD rats. Particulars: intravenous injection, 10 animals per group, 2.5% calcium chloride 100 mg/kg, hydrates 10 mg/kg, Quinidine 13.5 mg/kg. As for the experimental part:
50 SD rats were provided, male and female, body weight 226±31 g, randomly divided into 5 groups, separately administered by intravenous injection with physiological saline, Quinidine, […] The rats were anaesthetized with 3% pentobarbital sodium 40 mg·kg^−1, fixed in supine position on operation table, injected via lingual vein for 6 minutes, quickly intravenously injected (completed injection in 5 s) with 2.5% calcium chloride 100 mg·kg^−1 (0.4 ml/100 g), the number of animal with ventricular fibrillation and the number of died animals were recorded.

Data set [4] has as its system ischemic reperfusion brain tissues of rats. The data set is described as follows: Effects on rat ischemic reperfusion (NO, NOS, MDA, SOD in brain tissue). It is filed as in vivo, Wistar rats. The following applies: for Result of the ischemic reperfusion test in words: compared with sodium tanshinone IIA sulfonate 1.5 hydrate. As for the experimental part:
36 Male Wistar rats, body weight 250-300 g, were randomly divided into 3 groups: sham operation group, ischemic reperfusion group, and group of drug of the invention, 12 rats per group. As for group of drug of the invention: the rats were peritoneally administered with sodium tanshinone IIA sulfonate 1.5 hydrate in physiological saline, does of 40 mg/kg, twice per day, for consecutive 7 days, and subjected to cerebral ischemia operation 60 min after the last administration; the rats of sham operation group and ischemic reperfusion group were administered with the same volume of isometric physiological saline, respectively.
The rats were anesthetized with 10% chloral hydrate (3.5 ml/kg) by peritoneal injection, fixed in supine position, modeled by the improved Zea Longa thread occlusion method in document [Journal of Shanghai Jiaotong University (Medicine), 2007, 27(10):1218-1222]; in the sham operation group, thread was merely inserted 10 mm, and other steps were the same as the model group, animals appeared operation-side Horner syndrome and opposite-side movement disorder were deemed as successfully established models. After successful establishment of models, the animals were administered in the same dose as above twice per day, and the sham operation group and ischemic reperfusion group were administered with the same volume of isometric physiological saline, respectively. The thread was drawn out 2 h after model establishment, the rats were executed 24 h after reperfusion, their brains were taken out quickly and weighed. Physiological saline was used to prepare 10% brain tissue homogenate solution at low temperature, centrifuged at low temperature, 3000 r/min for 10 min, the deposit was discarded, the supernatant was taken up and tested to determine SOD, MDA, NO, NOS contents or activities according to the specifications of the corresponding commercial SOD, MDA, NO, NOS kits, the results are shown in Table 4.

Setting [5] is: rat brain tissue homogenate, 40 mg/kg peritoneally twice per day, 2 h ischemia, 24 h reperfusion.

As for `Cc1c(S(=O)(=O)[O-])oc2c1C(=O)C(=O)c1c-2ccc2c1CCCC2(C)C.[Na+]` [Anhydrous Sodium Tanshinone IIA Sulfonate, reference compound], the “Relative to 0 month, multiple of the relative substances” value (from here on “Relative to 0 month, multiple”) in data set [1] worked out at 1.21. In the data set “Hygroscopicity test”, the “Relative to 0 h, weight gain %” value is recorded as 11.43%. In the data set “Hygroscopicity test” (compared with the sodium tanshinone IIA sulfonate hydrates, RH 75%, 48 h), the Hygroscopicity in words entry is listed as “much higher”.
In the case of `COc1ccc(CCN(C)CCCC(C#N)(c2ccc(OC)c(OC)c2)C(C)C)cc1OC` (stereo not drawn) [Iproveratril, reference compound], in data set [2], the “Calcium uptake, x ± S μmol/min/g, dry weight” value is on record as 36.9 ± 2.5 μmol/min/g, dry weight; the “Protein release, x ± S mg/min/g, dry weight” value (“Protein release … dry weight” below) is recorded as 2.6 ± 0.2 mg/min/g, dry weight; the “Calcium uptake decrease rate, %” value was determined as 22.5%; the “Protein release decrease rate, %” value is given as 48%.
With `C=C[C@H]1C[N@@]2CC[C@H]1C[C@@H]2[C@@H](O)c1ccnc2ccc(OC)cc12` [Quinidine, reference compound], in data set [3], the “Arrhythmic animal number (n), Heart arrest” value was 4 n and the “Arrhythmic animal number (n), Ventricular fibrillation” value was determined as 6 n.
For “Sodium Tanshinone IIA Sulfonate 0.5 Hydrate”, in data set [1], the “Relative to 0 month, multiple” value stood at 0.34. Besides, in data set [3], the “Arrhythmic animal number (n), Heart arrest” value is 4 n and the “Arrhythmic animal number (n), Ventricular fibrillation” value is on record as 5 n. Moreover, the “Result of the ischemic reperfusion test in words” value in data set [4] is recorded as “results similar to those of the sodium tanshinone IIA sulfonate 1.5 hydrate”. Further, in “Hygroscopicity test”, the “Relative to 0 h, weight gain %” value stood at 7.96%. In data set [2], the “Calcium uptake, x ± S μmol/min/g, dry weight” value is reported as 34.5 ± 2.4 μmol/min/g, dry weight; the “Protein release … dry weight” value is listed as 2.4 ± 0.2 mg/min/g, dry weight; the “Calcium uptake decrease rate, %” value is 27.5%; the “Protein release decrease rate, %” value is recorded as 52%.
Regarding “Sodium Tanshinone IIA Sulfonate 1.5 Hydrate”, in data set [1], the “Relative to 0 month, multiple” value amounted to 0.25. For the same compound, in data set [3], the “Arrhythmic animal number (n), Heart arrest” value was 6 n and the “Arrhythmic animal number (n), Ventricular fibrillation” value turned out to be 5 n. In data set [4] (setting [5]), this compound had an MDA of 2.26 ± 0.62 nmol/mL, an NO of 24 ± 6.35 µmol/L, an NOS of 22 ± 5.31 U/ml and an SOD of 245 ± 21.59 U/ml. For the same compound, the “Relative to 0 h, weight gain %” value in “Hygroscopicity test” is on record as 4.12%. In data set [2], the “Calcium uptake, x ± S μmol/min/g, dry weight” value is listed as 35.2 ± 2.8 μmol/min/g, dry weight; the “Protein release … dry weight” value is given as 2.4 ± 0.3 mg/min/g, dry weight; the “Calcium uptake decrease rate, %” value is 26.1%; the “Protein release decrease rate, %” value turned out to be 52%.
With “Sodium Tanshinone IIA Sulfonate 2.5 Hydrate”, the “Relative to 0 month, multiple” value in data set [1] turned out to be 0.31. Also, in data set [3], the “Arrhythmic animal number (n), Heart arrest” value was determined as 5 n and the “Arrhythmic animal number (n), Ventricular fibrillation” value was determined as 6 n. Also, in data set [4], the “Result of the ischemic reperfusion test in words” value is reported as “results similar to those of the sodium tanshinone IIA sulfonate 1.5 hydrate”. In addition, the “Relative to 0 h, weight gain %” value in “Hygroscopicity test” stood at 1.25%. Also, in data set [2], the “Calcium uptake, x ± S μmol/min/g, dry weight” value is listed as 35.4 ± 3.1 μmol/min/g, dry weight; the “Protein release … dry weight” value is 2.5 ± 0.2 mg/min/g, dry weight; the “Calcium uptake decrease rate, %” value is 25.6%; the “Protein release decrease rate, %” value came out at 50%.

The values are drawn from US8629178B2, “Sodium tanshinone IIA sulfonate hydrate and preparation method and use thereof” (priority 2009, dated 2014).
